From article PMC7665192, “A natriuretic peptide from Arabidopsis thaliana (AtPNP-A) can modulate catalase 2 activity” (Scientific Reports, 2020)
Positions of bridges follow the written chain, without caps; N, C: chain ends. Residues, ends and D or L forms follow the SMILES beside them. *: point of attachment. Biotin = O=C1N[C@H]2[C@H](CS[C@H]2CCCCC(=O)*)N1

Assays:
rCAT2 = assay: Enzymatic activity of rCAT2, Amplex Red catalase assay; format: biochemical, Arabidopsis thaliana; conditions: 100 nM, Amplex Red catalase assay kit; three independent experiments, P < 0.01
Procedure: (§1) Enzymatic activity of CAT isozymes and total CAT activities of protein extracted from WT and atpnp-a or cat2-2 mutant lines, when indicated sprayed with 1 nM pAtPNP-A or pScr 20 min before harvesting, were determined zymographically and spectrophotometrically, as described in[56]. Relative quantification of intensity of bands corresponding to different CAT isoforms was performed with ImageJ version 1.48 (https://imagej.nih.gov/ij/). Enzymatic activity of the rCAT2 in the presence of absence of 100 nM rAtPNP-A, pAtPNP-A or pScr were determined with the use of Amplex Red catalase assay kit (Invitrogen) according to the manufacturer’s instructions.
(§2) Figure 3 AtPNP-A directly interacts with CAT2 to modulate its enzymatic activity in vitro. (a) Zymogram depicting changes in the enzymatic activity of CAT isoforms extracted from wild type (WT) or cat2-2 knockout mutant seedlings in response to 1 nM pAtPNP-A or pScr. Densitometric semi-quantification of bands corresponding to CAT2, normalized to the loading control (dark-coloured band on zymogram) for WT samples treated with 1 nM pAtPNP-A or pScr (mean ± SD, Student’s t-test, n = 3, P < 0.05). […] (b) Total CAT activity in protein extracted from WT seedlings assayed with Amplex Red catalase assay kit in the presence of 1 nM pAtPNP-A, rAtPNP-A, or pScr. […] (c) Enzymatic activity of rCAT2 in the presence of 100 nM pAtPNP-A, rAtPNP-A, or pScr.

CAT2 [1] = assay: Zymogram of CAT isoforms from treated seedlings; format: in vivo, Arabidopsis thaliana; conditions: 1 nM peptide, sprayed 20 min before harvesting; mean ± SD, n = 3, Student's t-test P < 0.05
Procedure: as §1, §2

CAT2 [2] = assay: Bimolecular fluorescence complementation (BiFC); format: cell-based, Arabidopsis thaliana; conditions: chloroplasts of tobacco leaf protoplasts; NeYFP/CeYFP fusions; mean ± SEM, n = 30, P < 0.0001
Excerpt: The full-length A. thaliana AtPNP-A (At2g18660) coding region entry plasmid pENTRYAtPNP-A[46] and pCR8/GW-TOPOCAT2 were recombined separately with both pSITE-nEYFP-C1 [GenBank Accession Number GU734651] and pSITE-cEYFP-C1 [GenBank Accession Number GU734652] to create pNeYFP-AtPNP-A, pCeYFP-AtPNP-A, pNeYFP-CAT2 and pCeYFP-CAT2, respectively. Each plasmid has either the N-terminal (NeYFP) or C-terminal (CeYFP) fragment of eYFP followed by either AtPNP-A or CAT2 coding region driven by the 35S plant expression promoter. After sequence was confirmed each plasmid was transformed separately into Agrobacterium tumefaciens strain GV3101 (pMP90). Tobacco leaves were infiltrated as previously described in[50]. Briefly, A. tumefaciens strains grown in 2YT medium were harvested by centrifugation and resuspended in infiltration medium (10 mM MES pH 5.6, 10 mM MgCl2, 150 µM acetosyringone) to a final OD600 of 0.2. Equal volumes of infiltration media containing relevant BiFC strains were mixed and infiltrated into the underside of tobacco leaves using a needleless syringe. Leaves were harvested after 3 days to isolate protoplasts following[51] and then immediately imaged.
BiFC images were captured at the La Trobe University LIMS BioImaging Facility using a LSM 510 confocal laser scanning microscope (Zeiss), with a × 40/1.2 water immersion objective. The natural red autofluorescence of chlorophyll was used as a marker for chloroplasts. Excitation/emission wavelengths were 488/505–530 nm for YFP and 561/650 nm long pass for red fluorescence. At least three images containing one or more protoplasts were taken for each of the plasmid construct combinations. Each image captured three separate filter scans, including YFP, red fluorescence and bright field. Post-processing of images was performed with ImageJ version 1.48 software (https://imagej.nih.gov/ij/). For each image the contrast for each panel was set at automatic contrast. A merged image was generated for reference with a 10 µm scale bar. The red fluorescence only panel was used to encircle ten chloroplasts as region of interest (ROI), then the YFP fluorescence (BiFC) calculated for each ROI was divided by the red fluorescence calculated for the same ROI. All BiFC/red fluorescence points were plotted using GraphPadPrism7 (GraphPadSoftware). Mean and standard error were calculated for each BiFC combination. All statistical analyses were performed using GraphPadPrism7.
Figure 4 AtPNP-A interacts with CAT2 in vivo. […] Exemplar merged images of protoplasts isolated from a leaf infiltrated with different combinations of N- or C-terminally tagged CAT2 and AtPNP-A are shown. (g) BiFC/Red fluorescence chloroplast analysis with mean ± SEM in pink.

leaf discs of WT plants = assay: Oxidative burst (ROS) in leaf discs; parameters: species or system Arabidopsis thaliana; conditions: leaf discs pre-treated with 100 nM rAtPNP-A for 30 min, then 1 μM flg22, luminol luminescence, 1 h, n = 11–12, P < 0.01
Procedure: Leaf discs (0.196 cm[2]) of 4-week-old WT plants were incubated overnight floating on 0.1 mL water in 96-well titer plate, with one disc per well. The following day the leaf discs were pre-treated with 100 nM rAtPNP-A or mock for 30 min. For ROS detection horseradish peroxidase and luminol (Sigma-Aldrich) were added to a final concentration of 10 μg mL^−1 and 100 μM, respectively. Luminescence was measured directly after addition of either 1 μM of flg22 or 100 nM rAtPNP-A in a MicroLumat LB96P plate reader (Berthold Technologies) for 1 h and is shown in relative light units.
Supplementary Figure S2. AtPNP-A participates in plant immunity.
Kinetics of ROS production after treatment of leaf discs with 1 μM flg22 with or without pre-treatment with 100 nM recombinant AtPNP-A (rAtPNP-A), or after treatment with rAtPNP-A only. Data are shown as mean ± SEM (two-way repeated measure ANOVA followed by Tukey’s multiple comparison test, n = 11 – 12, * P < 0.01). Total production of ROS during 60 min after treatment with rAtPNP-A, flg22, or flg22 and rAtPNP-A pre-treatment is shown as median ± SD (one-way ANOVA and Tukey-Kramer multiple comparison test, n = 11 – 12, P < 0.01) with statistically significant differences indicated by different letters.
(1 picture or pasted object on this page, not shown here)

In vitro enzymatic activity of rCAT2 (rCAT2) | Molecule | CAT2 activity in WT plants (zymogram) (CAT2 [1]) | BiFC / Red fluorescence signal, interaction with CAT2 (CAT2 [2]) | Effect on flg22-induced oxidative burst (leaf discs of WT plants) | Effect on flg22-induced oxidative burst (leaf discs of WT plants; listed as AtPNP) | Effect on flg22-induced oxidative burst (leaf discs of WT plants; listed as PNP)
significantly enhanced | CC(C)C[C@@H]1NC(=O)[C@H](CC(N)=O)NC(=O)[C@H](CC(N)=O)NC(=O)[C@H](CCCCN)NC(=O)[C@H](C(C)C)NC(=O)CNC(=O)[C@H](C(C)C)NC(=O)[C@H](C(C)C)NC(=O)[C@H](CC(C)C)NC(=O)[C@H]([C@@H](C)O)NC(=O)[C@H](CCC(=O)O)NC(=O)[C@H](CCCNC(=N)N)NC(=O)[C@H](CCC(N)=O)NC(=O)[C@H]([C@@H](C)O)NC(=O)CNC(=O)[C@H](Cc2ccc(O)cc2)NC(=O)[C@@H](NC(=O)[C@H](C)NC(=O)[C@H](CO)NC(=O)[C@H](CCCNC(=N)N)NC(=O)[C@@H](NC(=O)[C@H](Cc2ccc(O)cc2)NC(=O)[C@@H]2CCCN2)[C@@H](C)O)CSSC[C@@H](C(=O)NCC(=O)N[C@@H](CCCNC(=N)N)C(=O)N[C@@H](CCCNC(=N)N)C(=O)N[C@@H](Cc2ccc(O)cc2)C(=O)N[C@@H](CCCNC(=N)N)C(=O)N[C@H](C(=O)N[C@@H](CCCNC(=N)N)C(=O)N[C@@H](CCCCNC(=O)CCCC[C@@H]2SC[C@@H]3NC(=O)N[C@@H]32)C(=O)O)C(C)C)NC(=O)[C@H](C)NC(=O)[C@H](CCCNC(=N)N)NC(=O)CNC(=O)[C@H](CC(N)=O)NC(=O)[C@H](CCC(N)=O)NC(=O)[C@H](Cc2c[nH]c3ccccc23)NC1=O [pAtPNP-A] (H-PYTRSACYGTQRETLVVGVKNNLWQNGRACGRRYRVRK(Biotin)-OH; disulfide 7-30; N-terminus and C-terminus assumed) | increased CAT2 activity in WT plants compared to the mutants | – | – | – | –
– | AtPNP-A: An A. thaliana PNP, termed AtPNP-A (At2g18660; Q9ZV52) | – | interaction of the proteins in chloroplasts of protoplasts | enhanced flg22-induced oxidative burst | enhances responses to flg22 | enhances oxidative burst
